Measured values taken from patent US9999650B2, “Peptide and peptidomimetic inhibitors” (Ra Pharmaceuticals, Inc., priority 2012, dated 2018).
Numbered stars: 1 amine (or outer) side, 2 acyl side, 3 side chain; on linkers, the order of the positions; unused ones are H or OH. Bridge positions count the residues as written; N and C are the ends. Square brackets hold non-standard residues; d marks the D form. Peptide text beside a SMILES is read from it. * marks the point of attachment. Trp(5-Cl) = N[C@@H](Cc1c[nH]c2ccc(Cl)cc12)C(=O)O; Trp(7-aza) = N[C@@H](Cc1c[nH]c2ncccc12)C(=O)O; Phe(3-Cl) = N[C@@H](Cc1cccc(Cl)c1)C(=O)O; Phe(4-Cl) = N[C@@H](Cc1ccc(Cl)cc1)C(=O)O; X6 = Nc1ccc(CCC(N[*:1])C(=O)[*:2])cn1; mXylylene = c1cc(C[*:1])cc(C[*:2])c1; X8 = CC(C)(C)[C@H](N*)c1ccccn1; dPhg = N[C@@H](C(=O)O)c1ccccc1; Chg = N[C@H](C(=O)O)C1CCCCC1; Phg = N[C@H](C(=O)O)c1ccccc1; Tle = CC(C)(C)[C@H](N)C(=O)O; αMeP = C[C@@]1(C(=O)O)CCCN1; Ac5c = NC1(C(=O)O)CCCC1; Thp = NC1(C(=O)O)CCOCC1; Aib = CC(C)(N)C(=O)O; Mpa = O=C(O)CCS

Target: T1, human plasma kallikrein (Homo sapiens, UniProt P03952)
T1 construct: purchased Enzyme Research Laboratories HPKa 1303
Test: Enzyme inhibition assay (fluorogenic substrate H-Pro-Phe-Arg-AMC)
Format: biochemical
Settings: Kallikrein inhibitory activity; 1 nM activated human kallikrein, 500 μM H-Pro-Phe-Arg-AMC, 1 hour room temperature; read-out: Avg. IC50
Experimental: Activated human plasma kallikrein (Enzyme Research Laboratories, HPKa 1303) was reacted with H-Pro-Phe-Arg-7-amido-4-methylcoumarin (H-Pro-Pre-Arg-AMC) (a fluorogenic substrate for plasma as well as pancreatic and urinary kallikreins; Bachem I-1295) and candidate inhibitory peptides to determine the IC50 of the inhibitor.
Ten 8-fold serial dilutions of peptides (10 mM DMSO stocks) were performed in DMSO and then added to TCNB (50 mM Tris-HCl pH 7.2, 150 mM NaCl, 10 mM CaCl2, 0.05% Brij-35) and sonicated. 50 μL of the peptide dilutions were added to microtitre plates (96 well, black non-binding surface, Corning, 3650) and incubated for 5 minutes at room temperature with 4 nM activated human kallikrein (final concentration after addition of fluorogenic substrate: 1 nM). The samples were then incubated for 1 hour at room temperature with 2 mM H-Pro-Phe-Arg-AMC (final concentration 500 μM). Relative Fluorescence Units (RFU) were measured at excitation/emission 360 nm/460 nm by a SpectraMax M3.

T1 sequence (P03952 20-390 limits assumed): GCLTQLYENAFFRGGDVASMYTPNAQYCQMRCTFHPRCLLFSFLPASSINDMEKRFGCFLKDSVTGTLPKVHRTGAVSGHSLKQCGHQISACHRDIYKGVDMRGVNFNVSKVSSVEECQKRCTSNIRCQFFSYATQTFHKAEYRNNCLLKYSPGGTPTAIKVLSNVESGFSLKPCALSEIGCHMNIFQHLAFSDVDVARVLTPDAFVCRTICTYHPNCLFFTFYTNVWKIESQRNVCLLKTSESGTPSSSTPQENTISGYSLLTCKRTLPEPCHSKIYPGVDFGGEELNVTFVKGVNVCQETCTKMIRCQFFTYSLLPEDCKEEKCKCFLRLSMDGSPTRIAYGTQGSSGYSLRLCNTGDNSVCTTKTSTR
T1 sequence (P03952 391-638 limits assumed): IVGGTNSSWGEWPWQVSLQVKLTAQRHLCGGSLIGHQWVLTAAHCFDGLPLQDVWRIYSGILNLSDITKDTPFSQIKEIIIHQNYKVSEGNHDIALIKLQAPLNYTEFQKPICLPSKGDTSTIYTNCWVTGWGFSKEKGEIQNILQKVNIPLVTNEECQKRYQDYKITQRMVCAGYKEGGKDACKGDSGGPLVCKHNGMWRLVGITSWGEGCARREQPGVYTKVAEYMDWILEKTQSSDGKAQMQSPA

SMILES | IC50 [nM]
C[C@@H]1NC(=O)C2(CCOCC2)NC(=O)CCSCc2cccc(c2)CSC[C@@H](C(=O)N[C@@H](Cc2c[nH]c3ncccc23)C(=O)N[C@H](C(N)=O)C(C)(C)C)NC(=O)[C@H](C2CCCCC2)NC1=O [Compound R2147, [mXylyl(1,5)](des-NH2)C-AcPyr-A-Chg-C-AzaTrp-Tbg-NH2] ([Mpa][Thp]A[Chg]C[Trp(7-aza)][Tle]-NH2; linker 1-5 via mXylylene) | > 2190
CC[C@H](C)[C@@H]1NC(=O)[C@H](CO)NC(=O)CSCc2cccc(c2)CSC[C@@H](C(=O)N[C@@H](CCCNC(=N)N)C(=O)N[C@H](C(N)=O)C(C)C)NC1=O [Compound R2154, [mXylyl(1,4)](2-SAc)-SICRV-NH2] | > 7930
CC(=O)N[C@H](C(=O)N[C@H]1CSCc2cccc(c2)CSC[C@@H](C(N)=O)NC(=O)[C@H](C)NC(=O)[C@H](C(C)C)NC(=O)[C@H](CCCNC(=N)N)NC1=O)C1CCCCC1 [Compound R2159, [mXylyl(2,6)]Ac-Chg-CR-V-AC-NH2] (Ac-[Chg]CRVAC-NH2; linker 2-6 via mXylylene) | > 20100
CC(=O)N[C@H](C(=O)N[C@H]1CSCc2cccc(c2)CSC[C@@H](C(N)=O)NC(=O)[C@@H]2CCCN2C(=O)[C@H](C(C)C)NC(=O)[C@H](CCCNC(=N)N)NC1=O)C1CCCCC1 [Compound R2160, [mXylyl(2,6)]Ac-Chg-CR-V-PC-NH2] (Ac-[Chg]CRVPC-NH2; linker 2-6 via mXylylene) | > 100000
C[C@@H]1NC(=O)C2(CCCC2)NC(=O)CCSCc2cccc(c2)CSC[C@@H](C(=O)N[C@@H](CCCNC(=N)N)C(=O)N[C@H](C(N)=O)C(C)(C)C)NC(=O)[C@H](C2CCCCC2)NC1=O [Compound R2169, [mXylyl(1,5)](des-NH2)C-(Cyclo-L)-A-Chg-CR-Tbg-NH2] ([Mpa][Ac5c]A[Chg]CR[Tle]-NH2; linker 1-5 via mXylylene) | 1.9
CNC(=O)[C@@H](NC(=O)[C@H](CCCNC(=N)N)NC(=O)[C@@H]1CSCc2cccc(c2)CSCCC(=O)NC2(CCCC2)C(=O)N[C@@H](C)C(=O)N[C@@H](C2CCCCC2)C(=O)N1)C(C)C [Compound R2178, [mXylyl(1,5)](des-NH2)C-(Cyclo-L)-A-Chg-CR-V-NHCH3] ([Mpa][Ac5c]A[Chg]CRV-NHMe; linker 1-5 via mXylylene) | 3.2
CC(C)(C)[C@H](NC(=O)[C@H](CCCNC(=N)N)NC(=O)[C@@H]1CSCc2cccc(c2)CSCCC(=O)N2CCC[C@H]2C(=O)N[C@H](c2ccccc2)C(=O)N1)C(N)=O [Compound R2187, [mXylyl(1,4)](des-NH2)C-P-(D)Phg-CR-Tbg-NH2] ([Mpa]P[dPhg]CR[Tle]-NH2; linker 1-4 via mXylylene) | > 4700
CC(C)C[C@H](NC(=O)[C@@H](NC(=O)[C@H](CCCNC(=N)N)NC(=O)[C@@H]1CSCc2cccc(c2)CSCCC(=O)N2CCC[C@H]2C(=O)N[C@@H](c2ccccc2)C(=O)N1)C(C)(C)C)C(=O)O [Compound R2202, [mXylyl(1,4)](des-NH2)C-P-Phg-CR-Tbg-L-OH] ([Mpa]P[Phg]CR[Tle]L-OH; linker 1-4 via mXylylene) | 58.8
CC(C)(C)[C@H](NC(=O)[C@H](Cc1ccc(Cl)cc1)NC(=O)[C@@H]1CSCc2cccc(c2)CSCCC(=O)N2CCC[C@H]2C(=O)N[C@@H](c2ccccc2)C(=O)N1)C(N)=O [Compound R2205, [mXylyl(1,4)](des-NH2)C-P-Phg-C-4-Cl-Phe-Tbg-NH2] ([Mpa]P[Phg]C[Phe(4-Cl)][Tle]-NH2; linker 1-4 via mXylylene) | > 75000
CC(C)(C)[C@H](NC(=O)[C@H](Cc1ccc(Cl)cc1)NC(=O)[C@@H]1CSCc2cccc(c2)CSCCC(=O)N2CCC[C@H]2C(=O)N[C@H](c2ccccc2)C(=O)N1)C(N)=O [Compound R2206, [mXylyl(1,4)](des-NH2)C-P-(D)Phg-C-4-Cl-Phe-Tbg-NH2] ([Mpa]P[dPhg]C[Phe(4-Cl)][Tle]-NH2; linker 1-4 via mXylylene) | > 75000
CC(C)(C)[C@H](NC(=O)[C@H](Cc1cccc(Cl)c1)NC(=O)[C@@H]1CSCc2cccc(c2)CSCCC(=O)N2CCC[C@H]2C(=O)N[C@@H](c2ccccc2)C(=O)N1)C(N)=O [Compound R2207, [mXylyl(1,4)](des-NH2)C-P-Phg-C-3-Cl-Phe-Tbg-NH2] ([Mpa]P[Phg]C[Phe(3-Cl)][Tle]-NH2; linker 1-4 via mXylylene) | > 75000
CC(C)(C)[C@H](NC(=O)[C@H](Cc1c[nH]c2ccc(Cl)cc12)NC(=O)[C@@H]1CSCc2cccc(c2)CSCCC(=O)N2CCC[C@H]2C(=O)N[C@@H](c2ccccc2)C(=O)N1)C(N)=O [Compound R2209, [mXylyl(1,4)](des-NH2)C-P-Phg-C-5-C1-Trp-Tbg-NH2] ([Mpa]P[Phg]C[Trp(5-Cl)][Tle]-NH2; linker 1-4 via mXylylene) | > 75000

The remaining lines, values ahead:

IC50 [nM] | SMILES
> 8880 | C[C@@H]1NC(=O)C(C)(C)NC(=O)CCSCc2cccc(c2)CSC[C@@H](C(=O)N[C@@H](CCCNC(=N)N)C(=O)O)NC(=O)[C@H](C2CCCCC2)NC1=O [Compound R2153, [mXylyl(1,5)](des-NH2)C-Aib-A-Chg-CR-OH] ([Mpa][Aib]A[Chg]CR-OH; linker 1-5 via mXylylene)
6.8 | CC(C)(C)[C@H](NC(=O)[C@H](CCCNC(=N)N)NC(=O)[C@@H]1CSCc2cccc(c2)CSCCC(=O)N2CCC[C@@]2(C)C(=O)N[C@@H](C2CCCCC2)C(=O)N1)C(N)=O [Compound R2180, [mXylyl(1,4)](des-NH2)C-(a-Me)P-Chg-CR-Tbg-NH2] ([Mpa][αMeP][Chg]CR[Tle]-NH2; linker 1-4 via mXylylene)
> 3500 | CC(C)[C@H](NC(=O)[C@H](CCCNC(=N)N)NC(=O)[C@@H]1CSCc2cccc(c2)CSCCC(=O)N2CCC[C@H]2C(=O)N[C@@H](C2CCCCC2)C(=O)N1)C(=O)O [Compound R2183, [mXylyl(1,4)](des-NH2)C-P-Chg-CR-V-OH] ([Mpa]P[Chg]CRV-OH; linker 1-4 via mXylylene)
3.4 | CC(C)(C)[C@H](NC(=O)[C@H](CCCNC(=N)N)NC(=O)[C@@H]1CSCc2cccc(c2)CSCCC(=O)N2CCC[C@H]2C(=O)N[C@@H](c2ccccc2)C(=O)N1)C(N)=O [Compound R2188, [mXylyl(1,4)](des-NH2)C-P-Phg-CR-Tbg-NH2] ([Mpa]P[Phg]CR[Tle]-NH2; linker 1-4 via mXylylene)
> 175000 | N=C(N)NCCC[C@H](NC(=O)[C@@H]1CSCc2cccc(c2)CSCCC(=O)N2CCC[C@H]2C(=O)N[C@@H](C2CCCCC2)C(=O)N1)C(=O)O [Compound R2195, [mXylyl(1,4)](des-NH2)C-P-Chg-CR-OH] ([Mpa]P[Chg]CR-OH; linker 1-4 via mXylylene)
35.6 | CC(C)(C)[C@H](NC(=O)[C@H](CCCNC(=N)N)NC(=O)[C@@H]1CSCc2cccc(c2)CSCCC(=O)N2CCC[C@H]2C(=O)N[C@@H](C2CCCCC2)C(=O)N1)c1ccccn1 [Compound R2196, [mXylyl(1,4)](des-NH2)C-P-Chg-CR-(S)-2,2-dimethyl-1-(pyridin-2-yl)propan-1-amine] ([Mpa]P[Chg]CR-X8; linker 1-4 via mXylylene)
> 10000 | CC(C)[C@H](NC(=O)C(CCc1ccc(N)nc1)NC(=O)[C@@H]1CSCc2cccc(c2)CSCCC(=O)N2CCC[C@H]2C(=O)N[C@@H](C2CCCCC2)C(=O)N1)C(N)=O (stereo partly shown) [Compound R2203, [mXylyl(1,4)](des-NH2)C-P-Chg-C-2-amino-4-(6-aminopyridin-3-yl)butanoic acid-V-NH2] ([Mpa]P[Chg]C[X6]V-NH2; linker 1-4 via mXylylene)
